Read-outs that look alike come from different tables or passages of the source. Blank lines part the entries; values can stand above or below the compound they belong to.
Legend:
human p38 kinase alpha = biological target: T1, human p38 kinase alpha (Homo sapiens, UniProt Q16539); assay: p38 kinase in vitro assay, phosphorylation of biotinylated PHAS-I with 32P-ATP; format: biochemical; details: for IC50: read-out: P38 alpha kinase IC50; for P38 alpha kinase % inhib @ conc. (uM) / inhibition at 1 µM: @ 1.0 uM; for inhibition at 1 µM: read-out: P38 alpha kinase % inhib @ conc.
T1 construct: GST (N, cleaved yes); made in house; host or cells: E. coli DH10B
T1 sequence (Q16539 whole entry): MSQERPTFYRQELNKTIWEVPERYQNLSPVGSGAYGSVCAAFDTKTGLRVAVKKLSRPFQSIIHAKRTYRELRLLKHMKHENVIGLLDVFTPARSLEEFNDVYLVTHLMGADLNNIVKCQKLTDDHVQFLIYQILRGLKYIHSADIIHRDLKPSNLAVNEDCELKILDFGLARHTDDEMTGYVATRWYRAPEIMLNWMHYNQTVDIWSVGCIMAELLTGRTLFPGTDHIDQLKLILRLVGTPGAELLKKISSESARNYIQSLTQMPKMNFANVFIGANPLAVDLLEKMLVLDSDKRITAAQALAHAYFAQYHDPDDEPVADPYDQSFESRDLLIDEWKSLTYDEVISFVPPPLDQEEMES

[1] = test system: TNF-α, U937 human histiocytic lymphoma cell line; assay: LPS stimulation of TNF production by U937 cells; format: cell-based; details: for inhibition at 1 µM: U-937, @ 1.0 uM
In short: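 U937 cells differentiated 24 h with 20 ng/ml PMA, rested 24-48 h, used at 2 million cells/ml. Compounds in 0.1% DMSO final; LPS (E. coli, 100 ng/ml final) stimulation for 4 h at 37° C. Released TNF-α measured by ELISA; IC50 (μM).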

[2] = @ 10.0 uM, TNF production, U937 cells stimulated with LPS
[3] = @ 10.0 uM, TNF production, LPS-stimulated U937 cells
[4] = in vitro P38-alpha kinase inhibition
[5] = @ 1.0 uM, TNF production, U937 cells stimulated with LPS
[6] = Homo sapiens, TNF production, U937 cells stimulated with LPS, read-out: U937 Cell % inhib @ conc.
[7] = Homo sapiens, U-937, TNF production, human U937 cells stimulated with LPS, read-out: U937 Cell IC50
[8] = Homo sapiens, TNF production, LPS-stimulated U937 cells, read-out: U937 Cell % inhib @ conc.

- P38 alpha kinase IC50, uM or % inhib @ conc. (uM): % inhib (human p38 kinase alpha; @ 10.0 uM): 89.0% @
- U937 Cell IC50, uM or % inhib @ conc. (uM): % inhib [1, 2]: 7.0% @
SMILES: Cc1cccc(OC(=O)c2ccc(NC(=O)Cn3nc(-c4ccc(F)cc4)c(-c4ccncc4)c3C)cc2)c1 [Example B-2444]

- P38 alpha kinase % inhib @ conc. (human p38 kinase alpha; @ 100.0 uM): 50.0% @
SMILES: C=CCN(C(=O)Cn1nc(-c2ccc(F)cc2)c(-c2ccncc2)c1C)C1CCCCC1 [Example B-2373]
- U937 Cell % inhib @ conc. [1, 3]: 6% @

- IC50 (human p38 kinase alpha; [4]): 260 nM
- IC50 ([1]; Homo sapiens, U-937, TNF production in human U937 cells stimulated with LPS, read-out: U937 Cell IC50): 2.17 µM
SMILES: CC(NC(=O)N1CCCC1)c1[nH]nc(-c2ccc(F)cc2)c1-c1ccncc1 (stereo not drawn) [Example B-0581]

- IC50 (human p38 kinase alpha; in vitro P38-alpha kinase): 640 nM
SMILES: CC(=O)NCCNC(=O)NCCCc1[nH]nc(-c2ccc(F)cc2)c1-c1ccncc1 [Example B-1305]
- U937 Cell % inhib @ conc. ([1]; @ 1.0 uM, TNF production, LPS-stimulated U937 cells): 9.0% @

- P38 alpha kinase % inhib @ conc. (uM) (human p38 kinase alpha): 85.0% @
SMILES: O=S(=O)(NCCc1[nH]nc(-c2ccc(F)cc2)c1-c1ccncc1)c1ccc(F)cc1 [Example B-1013]
- U937 Cell % inhib @ conc. (uM) [1, 5]: 7.0% @

- IC50 (human p38 kinase alpha; [4]): 1480 nM
SMILES: CNC(=O)CCC(NC(=O)Nc1c(C)cccc1C)c1[nH]nc(-c2ccc(F)cc2)c1-c1ccncc1 (stereo not drawn) [Example B-0882]
- inhibition at 1 µM [1, 6]: 9%

- IC50 (human p38 kinase alpha; [4]): 4190 nM
- IC50 [1, 7]: > 1 µM
SMILES: CNC(=O)CCC(NC(=O)c1ccno1)c1[nH]nc(-c2ccc(F)cc2)c1-c1ccncc1 (stereo not drawn) [Example B-0869]

- IC50 (human p38 kinase alpha; [4]): 1080 nM
- IC50 [1, 7]: > 1 µM
SMILES: O=C(NC(Cc1ccccc1)c1[nH]nc(-c2ccc(F)cc2)c1-c1ccncc1)c1ccccc1 (stereo not drawn) [Example B-0819]

- P38 alpha kinase % inhib @ conc. (uM) (human p38 kinase alpha): 67.0% @
SMILES: CC(C)=CC(=O)NCCc1[nH]nc(-c2ccc(F)cc2)c1-c1ccncc1 [Example B-0998]
- U937 Cell % inhib @ conc. (uM) [1, 5]: 25.0% @

- P38 alpha kinase IC50, uM or % inhib @ conc. (uM): % inhib (human p38 kinase alpha; @ 10.0 uM): 75.0% @
- IC50 ([1]; TNF production, U937 cells stimulated with LPS, read-out: U937 Cell IC50, uM or % inhib @ conc. (uM): IC50): > 10 µM
SMILES: COc1ccc(CN(CCc2ccccc2)C(=O)Cn2nc(-c3ccc(F)cc3)c(-c3ccncc3)c2C)cc1 [Example B-2396]

- P38 alpha kinase IC50, uM or % inhib @ conc. (uM): % inhib (human p38 kinase alpha; @ 10.0 uM): 39.0% @
- U937 Cell IC50, uM or % inhib @ conc. (uM): % inhib [1, 2]: 29.0% @
SMILES: Cc1c(-c2ccncc2)c(-c2ccc(F)cc2)nn1CC(=O)N1CCC(N(C)C(=O)OC(C)(C)C)C1 (stereo not drawn) [Example B-2389]

- IC50 (human p38 kinase alpha; [4]): 870 nM
SMILES: CNC(=O)CCC(NS(=O)(=O)c1ccccc1F)c1[nH]nc(-c2ccc(F)cc2)c1-c1ccncc1 (stereo not drawn) [Example B-0879]
- inhibition at 1 µM [1, 6]: 1%

- IC50 (human p38 kinase alpha; in vitro P38-alpha kinase): 26 nM
SMILES: O=C(NCCCc1[nH]nc(-c2ccc(F)cc2)c1-c1ccncc1)NCC1CC1 [Example B-1316]
- inhibition at 1 µM [1, 8]: 36%

- IC50 (human p38 kinase alpha; in vitro P38-alpha kinase): < 100 nM
SMILES: O=C(NCCCc1[nH]nc(-c2ccc(F)cc2)c1-c1ccncc1)NCCCN1CCCC1 [Example B-1318]
- inhibition at 1 µM [1, 8]: 1%

- inhibition at 1 µM (human p38 kinase alpha): 94%
- IC50 [1, 7]: 1.01 µM
SMILES: O=C(NCc1[nH]nc(-c2ccc(F)cc2)c1-c1ccncc1)c1ccc(F)c(F)c1 [Example B-0045]

- IC50 (human p38 kinase alpha; in vitro P38-alpha kinase): 55 nM
- IC50 [1, 7]: 0.73 µM
SMILES: CCNC(=O)N1CCC(c2[nH]nc(-c3ccc(F)cc3)c2-c2ccncc2)CC1 [Example B-1381]

- IC50 (human p38 kinase alpha; [4]): 2110 nM
- IC50 [1, 7]: > 1 µM
SMILES: COc1ccc(CC(=O)NC(Cc2ccccc2)c2[nH]nc(-c3ccc(F)cc3)c2-c2ccncc2)cc1OC (stereo not drawn) [Example B-0815]

- P38 alpha kinase % inhib @ conc. (uM) (human p38 kinase alpha): 87.0% @
SMILES: O=S(=O)(NCCc1[nH]nc(-c2ccc(F)cc2)c1-c1ccncc1)c1ccccc1F [Example B-1020]
- U937 Cell % inhib @ conc. (uM) [1, 5]: 36.0% @

- P38 alpha kinase % inhib @ conc. (human p38 kinase alpha; @ 10.0 uM): 65.0% @
SMILES: CCCCCc1cccc(C(C)NC(=O)Cn2nc(-c3ccc(F)cc3)c(-c3ccncc3)c2C)c1 (stereo not drawn) [Example B-2354]
- U937 Cell % inhib @ conc. [1, 3]: 25.0% @

- IC50 (human p38 kinase alpha; [4]): 1920 nM
- IC50 [1, 7]: > 1 µM
SMILES: CNC(=O)CCC(NC(=O)c1ccccc1F)c1[nH]nc(-c2ccc(F)cc2)c1-c1ccncc1 (stereo not drawn) [Example B-0874]

- IC50 (human p38 kinase alpha; in vitro P38-alpha kinase): 120 nM
- IC50 [1, 7]: 5 µM
SMILES: O=S(=O)(c1ccccc1F)N1CCC(c2[nH]nc(-c3ccc(F)cc3)c2-c2ccncc2)CC1 [Example B-1377]

- inhibition at 1 µM (human p38 kinase alpha): 94%
SMILES: O=C(NCc1[nH]nc(-c2ccc(F)cc2)c1-c1ccncc1)c1ccc([N+](=O)[O-])o1 [Example B-0031]
- inhibition at 10 µM ([1]; Homo sapiens, U-937, @ 10.0 uM, TNF production, U937 cells stimulated with LPS, read-out: U937 Cell % inhib @ conc.): 100%

- IC50 (human p38 kinase alpha; [4]): 80 nM
SMILES: O=S(=O)(NCCc1[nH]nc(-c2ccc(F)cc2)c1-c1ccncc1)c1ccc(Cl)cc1Cl [Example B-1076]
- inhibition at 1 µM [1, 6]: 31%

- IC50 (human p38 kinase alpha; in vitro P38-alpha kinase): 190 nM
SMILES: Cn1cnc(S(=O)(=O)N2CCC(c3[nH]nc(-c4ccc(F)cc4)c3-c3ccncc3)CC2)c1 [Example B-1434]
- inhibition at 1 µM [1, 8]: 28%

Source: patent US6979686B1, “Substituted pyrazoles as p38 kinase inhibitors” (Pharmacia Corporation, priority 2001, dated 2005)
